Experimental data from patent US20250275540A1, “USE OF PROTOPORPHYRINOGEN OXIDASE” (BEIJING DABEINONG BIOTECHNOLOGY CO., LTD., priority 2022, published 2025).

System: transgenic soybean plants
Assay: Detection of the herbicide tolerance of the transgenic soybean plants
Assay type: in vivo
Design: key to damage levels rated at grade: grade 0 means that the growth status of plants is essentially consistent with those sprayed with the blank solvent (water); grade 1 means that the average of the damage levels of plants is less than 10%; grade 2 means that the average of the damage levels of plants is greater than 10%; grade 3 means that the average of the damage levels of plants is 100%
Conditions: for The grade of pesticide damage/plant: 0 / The grade of pesticide damage/plant: 1 / The grade of pesticide damage/plant: 2 / The grade of pesticide damage/plant: 3: 7 DAT
[1] = genotype Control vector, 50 g ai/ha
[2] = genotype Control vector, 100 g ai/ha
[3] = genotype PPO-AP-01, 100 g ai/ha
[4] = genotype PPO-EC-01, 100 g ai/ha

CC(C)N(C)S(=O)(=O)NC(=O)c1cc(-n2c(=O)cc(C(F)(F)F)n(C)c2=O)c(F)cc1Cl [saflufenacil, N′-[2-chloro-4-fluoro-5-(3-methyl-2,6-dioxo-4-(trifluoromethyl)-3,6-dihydro-1 (2H)-pyrimidine)benzoyl]-N-isopropyl-N-methylsulfamide]
The grade of pesticide damage/plant: 0 (genotype CK, 50 g ai/ha): 0 plant | The grade of pesticide damage/plant: 1 (genotype CK, 50 g ai/ha): 0 plant | The grade of pesticide damage/plant: 2 (genotype CK, 50 g ai/ha): 0 plant | The grade of pesticide damage/plant: 3 (genotype CK, 50 g ai/ha): 16 plant | The grade of pesticide damage/plant: 0 (genotype CK, 100 g ai/ha): 0 plant | The grade of pesticide damage/plant: 1 (genotype CK, 100 g ai/ha): 0 plant | The grade of pesticide damage/plant: 2 (genotype CK, 100 g ai/ha): 0 plant | The grade of pesticide damage/plant: 3 (genotype CK, 100 g ai/ha): 16 plant | The grade of pesticide damage/plant: 0 [1]: 0 plant | The grade of pesticide damage/plant: 1 [1]: 0 plant | The grade of pesticide damage/plant: 2 [1]: 0 plant | The grade of pesticide damage/plant: 3 [1]: 16 plant | The grade of pesticide damage/plant: 0 [2]: 0 plant | The grade of pesticide damage/plant: 1 [2]: 0 plant | The grade of pesticide damage/plant: 2 [2]: 0 plant | The grade of pesticide damage/plant: 3 [2]: 16 plant | The grade of pesticide damage/plant: 0 (genotype PPO-AP-01, 50 g ai/ha): 0 plant | The grade of pesticide damage/plant: 1 (genotype PPO-AP-01, 50 g ai/ha): 0 plant | The grade of pesticide damage/plant: 2 (genotype PPO-AP-01, 50 g ai/ha): 8 plant | The grade of pesticide damage/plant: 3 (genotype PPO-AP-01, 50 g ai/ha): 8 plant | The grade of pesticide damage/plant: 0 [3]: 0 plant | The grade of pesticide damage/plant: 1 [3]: 0 plant | The grade of pesticide damage/plant: 2 [3]: 0 plant | The grade of pesticide damage/plant: 3 [3]: 16 plant | tolerance to the herbicide (in words) (genotype PPO-AP-01, at different concentrations): basically no tolerance | The grade of pesticide damage/plant: 0 (genotype PPO-EC-01, 50 g ai/ha): 9 plant | The grade of pesticide damage/plant: 1 (genotype PPO-EC-01, 50 g ai/ha): 7 plant | The grade of pesticide damage/plant: 2 (genotype PPO-EC-01, 50 g ai/ha): 0 plant | The grade of pesticide damage/plant: 3 (genotype PPO-EC-01, 50 g ai/ha): 0 plant | The grade of pesticide damage/plant: 0 [4]: 8 plant | The grade of pesticide damage/plant: 1 [4]: 3 plant | The grade of pesticide damage/plant: 2 [4]: 5 plant | The grade of pesticide damage/plant: 3 [4]: 0 plant | share of the plants that exhibited moderate- or poor-resistant tolerance (genotype PPO-EC-01, four-fold field concentration): about 32% | share of the plants rated at grade 1 (genotype PPO-EC-01, two-fold field concentration): about 44% | The grade of pesticide damage/plant: 0 (genotype PPOA-01, 50 g ai/ha): 16 plant | The grade of pesticide damage/plant: 1 (genotype PPOA-01, 50 g ai/ha): 0 plant | The grade of pesticide damage/plant: 2 (genotype PPOA-01, 50 g ai/ha): 0 plant | The grade of pesticide damage/plant: 3 (genotype PPOA-01, 50 g ai/ha): 0 plant | The grade of pesticide damage/plant: 0 (genotype PPOA-01, 100 g ai/ha): 16 plant | The grade of pesticide damage/plant: 1 (genotype PPOA-01, 100 g ai/ha): 0 plant | The grade of pesticide damage/plant: 2 (genotype PPOA-01, 100 g ai/ha): 0 plant | The grade of pesticide damage/plant: 3 (genotype PPOA-01, 100 g ai/ha): 0 plant | The grade of pesticide damage/plant: 0 (genotype PPOB-01, 50 g ai/ha): 16 plant | The grade of pesticide damage/plant: 1 (genotype PPOB-01, 50 g ai/ha): 0 plant | The grade of pesticide damage/plant: 2 (genotype PPOB-01, 50 g ai/ha): 0 plant | The grade of pesticide damage/plant: 3 (genotype PPOB-01, 50 g ai/ha): 0 plant | The grade of pesticide damage/plant: 0 (genotype PPOB-01, 100 g ai/ha): 16 plant | The grade of pesticide damage/plant: 1 (genotype PPOB-01, 100 g ai/ha): 0 plant | The grade of pesticide damage/plant: 2 (genotype PPOB-01, 100 g ai/ha): 0 plant | The grade of pesticide damage/plant: 3 (genotype PPOB-01, 100 g ai/ha): 0 plant | The grade of pesticide damage/plant: 0 (genotype PPOC-01, 50 g ai/ha): 16 plant | The grade of pesticide damage/plant: 1 (genotype PPOC-01, 50 g ai/ha): 0 plant | The grade of pesticide damage/plant: 2 (genotype PPOC-01, 50 g ai/ha): 0 plant | The grade of pesticide damage/plant: 3 (genotype PPOC-01, 50 g ai/ha): 0 plant | The grade of pesticide damage/plant: 0 (genotype PPOC-01, 100 g ai/ha): 16 plant | The grade of pesticide damage/plant: 1 (genotype PPOC-01, 100 g ai/ha): 0 plant | The grade of pesticide damage/plant: 2 (genotype PPOC-01, 100 g ai/ha): 0 plant | The grade of pesticide damage/plant: 3 (genotype PPOC-01, 100 g ai/ha): 0 plant | The grade of pesticide damage/plant: 0 (genotype PPOD-01, 50 g ai/ha): 16 plant | The grade of pesticide damage/plant: 1 (genotype PPOD-01, 50 g ai/ha): 0 plant | The grade of pesticide damage/plant: 2 (genotype PPOD-01, 50 g ai/ha): 0 plant | The grade of pesticide damage/plant: 3 (genotype PPOD-01, 50 g ai/ha): 0 plant | The grade of pesticide damage/plant: 0 (genotype PPOD-01, 100 g ai/ha): 16 plant | The grade of pesticide damage/plant: 1 (genotype PPOD-01, 100 g ai/ha): 0 plant | The grade of pesticide damage/plant: 2 (genotype PPOD-01, 100 g ai/ha): 0 plant | The grade of pesticide damage/plant: 3 (genotype PPOD-01, 100 g ai/ha): 0 plant | The grade of pesticide damage/plant: 0 (genotype PPOE-01, 50 g ai/ha): 16 plant | The grade of pesticide damage/plant: 1 (genotype PPOE-01, 50 g ai/ha): 0 plant | The grade of pesticide damage/plant: 2 (genotype PPOE-01, 50 g ai/ha): 0 plant | The grade of pesticide damage/plant: 3 (genotype PPOE-01, 50 g ai/ha): 0 plant | The grade of pesticide damage/plant: 0 (genotype PPOE-01, 100 g ai/ha): 15 plant | The grade of pesticide damage/plant: 1 (genotype PPOE-01, 100 g ai/ha): 1 plant | The grade of pesticide damage/plant: 2 (genotype PPOE-01, 100 g ai/ha): 0 plant | The grade of pesticide damage/plant: 3 (genotype PPOE-01, 100 g ai/ha): 0 plant | The grade of pesticide damage/plant: 0 (genotype PPOF-01, 50 g ai/ha): 16 plant | The grade of pesticide damage/plant: 1 (genotype PPOF-01, 50 g ai/ha): 0 plant | The grade of pesticide damage/plant: 2 (genotype PPOF-01, 50 g ai/ha): 0 plant | The grade of pesticide damage/plant: 3 (genotype PPOF-01, 50 g ai/ha): 0 plant | The grade of pesticide damage/plant: 0 (genotype PPOF-01, 100 g ai/ha): 16 plant | The grade of pesticide damage/plant: 1 (genotype PPOF-01, 100 g ai/ha): 0 plant | The grade of pesticide damage/plant: 2 (genotype PPOF-01, 100 g ai/ha): 0 plant | The grade of pesticide damage/plant: 3 (genotype PPOF-01, 100 g ai/ha): 0 plant | tolerance to the herbicide (in words) (genotypes PPOA-01 to PPOF-01, four-fold field concentration): high-resistant tolerance | damage levels rated at grade (genotypes PPOA-01 to PPOF-01, two-fold field concentration): 0 | tolerance to the herbicide (in words) (genotypes PPOA-01 to PPOF-01 and PPO-EC-01, compared with the control vector and CK): different extents of tolerance
